Test results taken from patent US9376425B2, “Heterocyclic compounds as MDM2 inhibitors for the treatment of cancer” (AMGEN INC., priority 2011, dated 2016).

target: T1, human MDM2 (GST-hMDM2 aa 1-188), interaction with biotinylated-p53 (aa 1-83) (Homo sapiens, UniProt Q00987); experiment: Homogenous Time-Resolved Fluorescence Assay (HTRF1 assay), inhibition of HDM2-p53 interaction; type: binding; conditions: 2.5 nM GST-hMDM2, 5 nM biotinylated-p53, 200 mM KF
T1 construct: Amino acid residues 1-188 of human MDM2 were expressed; made in house; host or cells: Escherichia coli
Procedure: Homogenous Time-Resolved Fluorescence Assay (HTRF1 Assay)
Residues 1-83 of human p53 were expressed as an amino-terminal AviTag™-TrxA-6xHis fusion protein (biotinylated p53) in E. coli. Each protein was purified from cell paste by affinity chromatography.
Specifically, 10 uL of GST-hMDM2 was incubated with 10 ul of diluted compound (various concentrations, serially diluted) in 10% DMSO for 20 minutes at room temperature. 20 uL of biotinylated-p53 was added to the GST-hMDM2+ compound mixture, and then incubated at room temperature for 60 min. 10 uL of detection buffer consisting of SA-XLent, anti-GST cryptate antibody and KF was added to GST-hMDM2, biotinylated-p53 and compound reaction and left at room temperature to reach equilibrium for >4 hrs. The final concentration of DMSO in the reaction was 2%. Time-resolved fluorescence readings were measured on a microplate multilabel reader. Percentage of inhibition was calculated relative to nutlin-3.

T1 sequence (Q00987 1-188): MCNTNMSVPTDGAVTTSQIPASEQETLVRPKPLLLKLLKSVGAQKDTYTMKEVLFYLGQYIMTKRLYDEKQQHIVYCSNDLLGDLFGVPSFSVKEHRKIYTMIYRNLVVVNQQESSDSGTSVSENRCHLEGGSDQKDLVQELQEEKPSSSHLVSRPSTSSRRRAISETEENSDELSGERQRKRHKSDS

| IC50 | SMILES |
| --- | --- |
| 600 nM | O=C(O)CC1O[C@H](c2ccc(F)c(Cl)c2)[C@@H](c2ccc(Cl)cc2)N(CC2CC2)C1=O (single isomer, unassigned) [Example 94] |
| 1600 nM | O=C(O)C[C@H]1OC(c2cccc(Cl)c2)[C@@H](c2ccc(Cl)cn2)N(CC2CC2)C1=O (single isomer, unassigned) [Example 8] |
| 600 nM | Cc1ccc([C@@H]2[C@@H](c3cccc(Cl)c3)O[C@H](CC(=O)O)C(=O)N2CC2CC2)cc1 [Example 61, 2-((2R,5R,6R)-6-(3-Chlorophenyl)-4-(cyclopropylmethyl)-3-oxo-5-(p-tolyl)morpholin-2-yl)acetic acid] |
| 300 nM | O=C(O)CC1O[C@H](c2cc(Cl)cc(Br)c2)[C@@H](c2ccc(Cl)cc2)N(CC2CC2)C1=O (single isomer, unassigned) [Example 105] |
| 700 nM | O=C(O)C[C@@H]1O[C@H](c2cccc(Cl)c2)[C@@H](c2ccc(OC(F)(F)F)cc2)N(CC2CC2)C1=O [Example 59, 2-((2S,5R,6R)-6-(3-Chlorophenyl)-4-(cyclopropylmethyl)-3-oxo-5-(4-(trifluoromethoxy)phenyl)morpholin-2-yl)acetic acid] |
| 500 nM | O=C(O)CC1O[C@H](c2cc(F)cc(F)c2)[C@@H](c2ccc(Cl)cc2)N(CC2CC2)C1=O (single isomer, unassigned) [Example 97] |
| 700 nM | O=C(O)C[C@@H]1O[C@H](c2cccc(Cl)c2)[C@@H](c2ccc(F)cc2)N(CC2CC2)C1=O [Example 56, 2-((2S,5R,6R)-6-(3-Chlorophenyl)-4-(cyclopropylmethyl)-5-(4-fluorophenyl)-3-oxomorpholin-2-yl)acetic acid] |
| 1800 nM | N#Cc1cc(F)cc([C@H]2OC(CC(=O)O)C(=O)N(CC3CC3)[C@@H]2c2ccc(Cl)cc2)c1 (single isomer, unassigned) [Example 98] |
| 700 nM | Cc1ccc([C@@H]2[C@@H](c3cccc(Cl)c3)O[C@@H](CC(=O)O)C(=O)N2CC2CC2)cc1 [Example 60, 2-((2S,5R,6R)-6-(3-Chlorophenyl)-4-(cyclopropylmethyl)-3-oxo-5-(p-tolyl)morpholin-2-yl)acetic acid] |
| 100 nM | CCC(CC)N1C(=O)[C@H](CC(=O)O)O[C@H](c2cccc(Cl)c2)[C@H]1c1ccc(Cl)cc1 [Example 53, 2-((2S,5R,6R)-6-(3-Chlorophenyl)-5-(4-chlorophenyl)-3-oxo-4-(pentan-3-yl)morpholin-2-yl)acetic acid] |
| 600 nM | O=C(O)CC1O[C@H](c2cc(Cl)ccc2F)[C@@H](c2ccc(Cl)cc2)N(CC2CC2)C1=O (single isomer, unassigned) [Example 101] |
| 300 nM | C[C@@H](C1CCC1)N1C(=O)[C@H](CC(=O)O)O[C@H](c2cccc(Cl)c2)[C@H]1c1ccc(Cl)cc1 [Example 23, 2-((2S,5R,6R)-6-(3-Chlorophenyl)-5-(4-chlorophenyl)-4-((S)-1-cyclobutylethyl)-3-oxomorpholin-2-yl)acetic acid] |
| 25000 nM | O=C(O)C[C@H]1O[C@H](c2cccc(Cl)c2)[C@@H](c2nc3ccccc3s2)N(CC2CC2)C1=O (racemic) [Example 4, 2-((2R,5S,6R)-5-(Benzo[d]thiazol-2-yl)-6-(3-chlorophenyl)-4-(cyclopropylmethyl)-3-oxomorpholin-2-yl)acetic acid and 2-((2S,5R,6S)-5-(Benzo[d]thiazol-2-yl)-6-(3-chlorophenyl)-4-(cyclopropylmethyl)-3-oxomorpholin-2-yl)acetic acid] |
| 30000 nM | O=C(O)CC1O[C@H](c2cccc(Cl)c2)[C@@H](c2ccc(C(F)(F)F)nc2)N(CC2CC2)C1=O (single isomer, unassigned) [Example 82] |
| 19500 nM | COc1cncc([C@H]2OC(CC(=O)O)C(=O)N(CC3CC3)[C@@H]2c2ccc(Cl)cc2)c1 (single isomer, unassigned) [Example 92] |
| 500 nM | O=C(O)C[C@H]1O[C@H](c2cccc(Cl)c2)[C@@H](c2ccc(Cl)cc2)N(CC2CCCC2)C1=O [Example 28, 2-((2R,5R,6R)-6-(3-Chlorophenyl)-5-(4-chlorophenyl)-4-(cyclopentylmethyl)-3-oxomorpholin-2-yl)acetic acid] |
| 9100 nM | O=C(O)C[C@H]1O[C@H](c2cccc(Cl)c2)[C@@H](c2ccccc2)N(CC2CC2)C1=O [Example 63, 2-((2R,5R,6R)-6-(3-Chlorophenyl)-4-(cyclopropylmethyl)-3-oxo-5-phenylmorpholin-2-yl)acetic acid] |
| 800 nM | O=C(O)CC1O[C@H](c2cccc(F)c2)[C@@H](c2ccc(Cl)cc2)N(CC2CC2)C1=O (single isomer, unassigned) [Example 86] |
| 1100 nM | O=C(O)C[C@@H]1O[C@H](c2cccc(Cl)c2)[C@@H](c2ccc(Cl)cc2)N(Cc2ncco2)C1=O [Example 43, 2-((2S,5R,6R)-6-(3-Chlorophenyl)-5-(4-chlorophenyl)-4-(oxazol-2-ylmethyl)-3-oxomorpholin-2-yl)acetic acid] |
| 3700 nM | COc1ccc([C@@H]2[C@@H](c3cccc(Cl)c3)OC(CC(=O)O)C(=O)N2CC2CC2)cc1 (single isomer, unassigned) [Example 75] |
| 3100 nM | O=C(O)CC1O[C@H](c2cccc(Cl)c2)[C@@H](c2ccc(Cl)nc2)N(CC2CC2)C1=O (single isomer, unassigned) [Example 71] |
| 100 nM | CC[C@@H](C(=O)OC(C)(C)C)N1C(=O)[C@@H](CC(=O)O)O[C@H](c2cccc(Cl)c2)[C@H]1c1ccc(Cl)cc1 (single isomer, unassigned) [Example 32] |
| 3400 nM | Cc1cccc([C@H]2OC(CC(=O)O)C(=O)N(CC3CC3)[C@@H]2c2ccc(Cl)cc2)c1 (single isomer, unassigned) [Example 103] |
| 300 nM | C[C@H](C1CCC1)N1C(=O)[C@H](CC(=O)O)O[C@H](c2cccc(Cl)c2)[C@H]1c1ccc(Cl)cc1 [Example 21, 2-((2S,5R,6R)-6-(3-Chlorophenyl)-5-(4-chlorophenyl)-4-((R)-1-cyclobutylethyl)-3-oxomorpholin-2-yl)acetic acid] |
| 800 nM | CCN1C(=O)[C@H](CC(=O)O)O[C@H](c2cccc(Cl)c2)[C@H]1c1ccc(Cl)cc1 [Example 45, 2-((2S,5R,6R)-6-(3-Chlorophenyl)-5-(4-chlorophenyl)-4-ethyl-3-oxomorpholin-2-yl)acetic acid] |

| SMILES | IC50 |
| --- | --- |
| C[C@@H](C1CCCCC1)N1C(=O)[C@H](CC(=O)O)O[C@H](c2cccc(Cl)c2)[C@H]1c1ccc(Cl)cc1 (single isomer, unassigned) [Example 19, 2-((2S,5R,6R)-6-(3-chlorophenyl)-5-(4-chlorophenyl)-4-((S)-1-cyclohexylethyl)-3-oxomorpholin-2-yl)acetic acid or 2-((2S,5R,6R)-6-(3-chlorophenyl)-5-(4-chlorophenyl)-4-((R)-1-cyclohexylethyl)-3-oxomorpholin-2-yl)acetic acid] | 600 nM |
| O=C(O)C[C@H]1O[C@H](c2cccc(Cl)c2)[C@@H](c2cc3ccccc3[nH]2)N(CC2CC2)C1=O (single isomer, unassigned) [Example 1, 2-((2R,5R,6R)-6-(3-Chlorophenyl)-4-(cyclopropylmethyl)-5-(1H-indol-2-yl)-3-oxomorpholin-2-yl)acetic acid or 2-((2S,5R,6R)-6-(3-Chlorophenyl)-4-(cyclopropylmethyl)-5-(1H-indol-2-yl)-3-oxomorpholin-2-yl)acetic acid] | 33400 nM |
